# Data reported in publication PMC5295395, “Inhibition of PlexA1-mediated brain tumor growth and tumor-associated angiogenesis using a transmembrane domain targeting peptide” (Oncotarget, 2016).
# Columns and labels:
# PlexA1-NRP1 interactions = assay: proximity ligation assay on U118MG tumor sections; format: in vivo, human cells in mouse; conditions: proximity ligation assay on tumor tissue, treated mice; p = 0.0051, Mann Whitney
# Procedure: (§1) To address the biological consequences of MTP-PlexA1-mediated inhibition of PlexA1 we used the U118MG-Luc glioma cell line genetically engineered to express the luciferase reporter gene. […] Cells were then grafted subcutaneously and tumor growth was monitored every 5 days for a total period of 20 days. […] The quantitative analysis of the cumulated luminescent signal acquired all along the protocol confirmed the strong reduction of tumor development translating into a marked 75% reduction of the averaged luminescent signal at the end point (Figure 6C). […] In order to clarify the mechanism by which MTP-PlexA1 is exerting tumor growth inhibition we collected tumors and analyzed them histologically.
# (§2) (B) Representative photographs illustrating the kinetic of tumor growth over 20 days in the two experimental groups. […] (D) Waterfall plot of best response representing the percent change in tumor volume of individual treated animals (grey bars, n = 10) compared to the average tumor volume increased determined in the control group (dark bars, n = 10). […] (F) Representative microphotographs and related quantification of PH3 positive cells in tumor slices (G) Representative microphotographs and related quantification of CD31 positive regions in tumor slices (% CD31 per μm² of tumors).
# [1] = system: tumor-associated blood vessels (CD31); assay: CD31 immunostaining of U118MG-Luc xenograft tumor sections; format: in vivo, mouse; conditions: vs control; p = 0.0436, Mann Whitney
# Procedure: as §1, §2
# NRP1/PlexA1 complexes = assay: in situ proximity ligation assay (Duo-link), NRP1/PlexA1 complexes in U373MG cells; format: cell-based, human; conditions: U373MG cells, MTP-PlexA1 10^−7 M, vs vehicle
# Procedure: “Zip sequence” is the positive control of dimerization and “Empty” is the negative control of this bacterial system. (C, D) SPR assay (Biacore) to quantify MTP-PlexA1 interactions with PLexA1, NRP1 and VEGFR2 TMDs. (E) Proximity ligation assay showing that MTP-PlexA1 (10^−7 M) decreases the number of PLexA1-NRP1 interactions (green dots) in U373MG cells (scale bar = 20 μm).
# Additional specificity controls were performed using a mutated version of MTP-PlexA1 (in which 3 glycines of the GxxxGxxxG motif were replaced by 3 valines or MTP-Neu, an anti-breast cancer peptide known to not interact with PlexA1) as described in Supplementary Figure S2. […] Similar results were obtained when cells were exposed to VEGF (39.4% NRP1 and 35.4% PlexA4, Figure 4B).
# Supplementary Figure S2: Specificity controls were performed using a mutated version of MTP-PlexA1 […]
# LVIVAVLIAYKRK). Such mutations have been previously shown to be sufficient to lose activity of NRP1 antagonist membrane domain targeting peptide (Roth et al., 2008 Mol Biol Cell). We also used MTP-Neu, a transmembrane domain targeting peptide known to […]
# M, a concentration previously shown to produce maximal antagonist activity of the peptide. Additionally, we also repeated the in vitro angiogenic assay on matrigel using HUVEC cells. […]
# to MTP-PlexA1. These experiments confirmed the specificity of MTP-PlexA1.
# (1 picture or pasted object on this page, not shown here)
# [2] = system: GBM tumors grafted in brain of immunocompromised mice; assay: orthotopic GBM graft in mouse brain; format: in vivo, human cells in mouse; conditions: i.p., 1 μg/kg every 3 days for 3 weeks, 1.5 µg/kg 3 times per week
# Procedure: To address the biological consequences of MTP-PlexA1-mediated inhibition of PlexA1 we used the U118MG-Luc glioma cell line genetically engineered to express the luciferase reporter gene. […] Cells were then grafted subcutaneously and tumor growth was monitored every 5 days for a total period of 20 days. […] The quantitative analysis of the cumulated luminescent signal acquired all along the protocol confirmed the strong reduction of tumor development translating into a marked 75% reduction of the averaged luminescent signal at the end point (Figure 6C). […] However, responses were strong for 8 out of 10 mice with some responses close to 100%, all of them being at least Partial Response (PR) (Figure 6D). In order to clarify the mechanism by which MTP-PlexA1 is exerting tumor growth inhibition we collected tumors and analyzed them histologically.
# Supplementary Figure S5: We performed an orthotropic grafting experiment to monitor the effect of MTP-PlexA1 on GBM tumors developing in their native microenvironment. All procedures using animals are submitted to the Animal Care and Use Committee of AL/54/61/02/13. Immunocompromised mice are anesthetized with isoflurane 3% (BAXTER), under 0.5 L O2, and received a subcutaneous injection of ketofen 1% 1.5 mL/Kg (MERIAL). The scalp is incised and 100 000 cells of the dissociated GBM biopsy were engrafted with a 2 µL Hamilton syringe (HARVARD APPARATUS; HAM-88400) mounted on a stereotaxic set up (HARVARD APPARATUS) to inject cells at the following coordinates from the bregma x: −2 mm; y: +1 mm; z: −3.5 mm at a speed of 0.66 µl/min, 5 minutes after the syringe introduction. […] Tumor volume is calculated by the addition of every partial volume: [V total = Σ partial volumes = Σ d1 × (S1 + S2)/2 + d2 x (S2 + S3)/2 + … + dn x […]]. […] The immunostaining procedure used to quantify proliferation and vascularization of the tumor is described in the method section.While not strongly impacting tumor volume (−14.5%, p = 0.54, Mann Whitney test) the intraperitoneal […]
# [3] = system: U373MG tumors in nude mice; assay: heterotopic U373MG xenograft in nude mice; format: in vivo, human cells in mouse
# Procedure: Supplementary Figure S6: The anti-tumor effect of MTP-PlxA1 was verified in U373MG human GBM line. […]
# (Stable Disease) and 62.5% PR (Partial Response).
# [4] = U373MG, waterfall best response, RECIST criteria
sequence,measurement,setting,value
"TLPAIVGIGGGGGLLLLVIVAVLIAYKRK [MTP-PlexA1, synthetic transmembrane peptide mimicking the TMD of PlexA1]",change of PlexA1-NRP1 interactions in tumor sections,PlexA1-NRP1 interactions,−48.5%
same,reduction of tumor-associated blood vessel density (CD31),[1],11.4%
same,reduction of NRP1/PlexA1 complexes,NRP1/PlexA1 complexes,29.4%
same,"change of tumor volume, orthotopic","[2]; n = 12, p = 0.54, Mann Whitney",−14.5%
same,"change of PH3 positive cells, orthotopic",[2]; p = 0.0023,−38.3%
same,"change of angiogenesis, orthotopic",[2]; p = 0.0378,−14.3%
same,change of endpoint tumor weight,"[3]; U373MG flank graft, daily i.p., 10–7 M, p = 0.0044",−44%
same,mice responding to the treatment,[3]; [4],100%
same,mice with PR (Partial Response),[3]; [4],62.5%
same,mice with SD (Stable Disease),[3]; [4],37.5%
